SMILES strings stand for the structures. Values after ≈ are worked out from the molar mass of the structure shown.

For one experiment, the system named is Nakaseomyces glabratus. Put plainly: Antifungal activity against Candida glabrata assessed as inhibition of fungal growth by CLSI M27-A3 guidelines based method. In kind it is functional.
Conditions: not given
As to `CN(Cc1ccc(N2CCN(Cc3cccc(Br)c3)CC2)cc1)CC(O)(Cn1cncn1)c1ccc(F)cc1F` (stereo unspecified), the MIC80 came to 0.2 mg/L (≈ 0.327 µM).

In the case of `CN(Cc1ccc(N2CCN(Cc3ccccc3F)CC2)cc1)CC(O)(Cn1cncn1)c1ccc(F)cc1F` (stereo unspecified), the MIC80 was 0.4 mg/L (≈ 0.726 µM).

Turning to `CN1CCN(c2ccc(CN(C)CC(O)(Cn3cncn3)c3ccc(F)cc3F)cc2)CC1` (stereo unspecified), the MIC80 is above 32 mg/L.

For the compound `CN(Cc1ccc(N2CCN(Cc3ccc(C(F)(F)F)cc3Br)CC2)cc1)CC(O)(Cn1cncn1)c1ccc(F)cc1F` (stereo unspecified), the MIC80 was 0.2 mg/L (≈ 0.294 µM).

A further experiment deals with Candida albicans. Put plainly: Antifungal activity against fluconazole-resistant Candida albicans clinical isolate 100 assessed as inhibition of fungal growth by CLSI M27-A3 guidelines based method. Type of experiment: functional.
Conditions: not given
For `CN(Cc1ccc(N2CCN(Cc3cccc(Br)c3)CC2)cc1)CC(O)(Cn1cncn1)c1ccc(F)cc1F` (stereo unspecified), the MIC80 came to 8 mg/L (≈ 13.1 µM).

In a further experiment the test system is Pichia kudriavzevii. The experiment is described as follows: Antifungal activity against Candida krusei GIM 2.1 assessed as inhibition of fungal growth by CLSI M27-A3 guidelines based method. In kind it is functional.
Conditions: not given
`CN(Cc1ccc(N2CCN(Cc3cccc(Br)c3)CC2)cc1)CC(O)(Cn1cncn1)c1ccc(F)cc1F` (stereo unspecified): the MIC80 was 0.1 mg/L (≈ 0.164 µM).

As to `CN(Cc1ccc(N2CCN(Cc3ccccc3F)CC2)cc1)CC(O)(Cn1cncn1)c1ccc(F)cc1F` (stereo unspecified), the MIC80 came to 0.1 mg/L (≈ 0.182 µM).

Consider `CN1CCN(c2ccc(CN(C)CC(O)(Cn3cncn3)c3ccc(F)cc3F)cc2)CC1` (stereo unspecified), for which the MIC80 is above 32 mg/L.

Regarding `CN(Cc1ccc(N2CCN(Cc3ccc(C(F)(F)F)cc3Br)CC2)cc1)CC(O)(Cn1cncn1)c1ccc(F)cc1F` (stereo unspecified), the MIC80 was 0.2 mg/L (≈ 0.294 µM).

Another experiment deals with Candida albicans. Put plainly: Antifungal activity against fluconazole-resistant Candida albicans clinical isolate 632 assessed as inhibition of fungal growth by CLSI M27-A3 guidelines based method. Type of experiment: functional.
Conditions: not given
Regarding `CN(Cc1ccc(N2CCN(Cc3cccc(Br)c3)CC2)cc1)CC(O)(Cn1cncn1)c1ccc(F)cc1F` (stereo unspecified), the MIC80 worked out at 8 mg/L (≈ 13.1 µM).

For a further experiment, the system named is Candida albicans. Put plainly: Antifungal activity against fluconazole-resistant Candida albicans CaR assessed as inhibition of fungal growth by CLSI M27-A3 guidelines based method. Type of experiment: functional.
Conditions: not given
As for `CN(Cc1ccc(N2CCN(Cc3cccc(Br)c3)CC2)cc1)CC(O)(Cn1cncn1)c1ccc(F)cc1F` (stereo unspecified), the MIC80 was 0.063 mg/L (≈ 0.103 µM).

Another experiment deals with Candida albicans. The experiment is described as follows: Antifungal activity against fluconazole-resistant Candida albicans clinical isolate 103 assessed as inhibition of fungal growth by CLSI M27-A3 guidelines based method. In kind it is functional.
Conditions: not given
As for `CN(Cc1ccc(N2CCN(Cc3cccc(Br)c3)CC2)cc1)CC(O)(Cn1cncn1)c1ccc(F)cc1F` (stereo unspecified), the MIC80 is 32 mg/L (≈ 52.3 µM).

The next experiment concerns Candida albicans. The experiment is described as follows: Antifungal activity against fluconazole-resistant Candida albicans clinical isolate 904 assessed as inhibition of fungal growth by CLSI M27-A3 guidelines based method. In kind it is functional.
Conditions: not given
In the case of `CN(Cc1ccc(N2CCN(Cc3cccc(Br)c3)CC2)cc1)CC(O)(Cn1cncn1)c1ccc(F)cc1F` (stereo unspecified), the MIC80 came to 16 mg/L (≈ 26.2 µM).

The test system of another experiment is Candida albicans. Put plainly: Antifungal activity against fluconazole-resistant Candida albicans clinical isolate 901 assessed as inhibition of fungal growth by CLSI M27-A3 guidelines based method. Type of experiment: functional.
Conditions: not given
For the compound `CN(Cc1ccc(N2CCN(Cc3cccc(Br)c3)CC2)cc1)CC(O)(Cn1cncn1)c1ccc(F)cc1F` (stereo unspecified), the MIC80 was above 64 mg/L.

A further experiment has as its system Candida albicans. The experiment is described as follows: Antifungal activity against Candida albicans SC5314 assessed as inhibition of fungal growth by CLSI M27-A3 guidelines based method.
Conditions: not given
Type of experiment: functional.
`CN(Cc1ccc(N2CCN(Cc3cccc(Br)c3)CC2)cc1)CC(O)(Cn1cncn1)c1ccc(F)cc1F` (stereo unspecified): the MIC80 stood at 0.013 mg/L (≈ 0.0213 µM).

Consider `CN(Cc1ccc(N2CCN(Cc3ccccc3F)CC2)cc1)CC(O)(Cn1cncn1)c1ccc(F)cc1F` (stereo unspecified), for which the MIC80 came out at 0.05 mg/L (≈ 0.0908 µM).

Consider `CN1CCN(c2ccc(CN(C)CC(O)(Cn3cncn3)c3ccc(F)cc3F)cc2)CC1` (stereo unspecified), for which the MIC80 was 8 mg/L (≈ 17.5 µM).

Regarding `CN(Cc1ccc(N2CCN(Cc3ccc(C(F)(F)F)cc3Br)CC2)cc1)CC(O)(Cn1cncn1)c1ccc(F)cc1F` (stereo unspecified), the MIC80 is 0.013 mg/L (≈ 0.0191 µM).

The next experiment deals with Candida parapsilosis. The experiment is described as follows: Antifungal activity against Candida parapsilosis GIM 2.190 assessed as inhibition of fungal growth by CLSI M27-A3 guidelines based method. To be noted: Lodderomyces parapsilosis. Type of experiment: functional.
Regarding `CN(Cc1ccc(N2CCN(Cc3cccc(Br)c3)CC2)cc1)CC(O)(Cn1cncn1)c1ccc(F)cc1F` (stereo unspecified), the MIC80 stood at 0.006 mg/L (≈ 0.00981 µM).

As to `CN(Cc1ccc(N2CCN(Cc3ccccc3F)CC2)cc1)CC(O)(Cn1cncn1)c1ccc(F)cc1F` (stereo unspecified), the MIC80 was 0.025 mg/L (≈ 0.0454 µM).

In the case of `CN1CCN(c2ccc(CN(C)CC(O)(Cn3cncn3)c3ccc(F)cc3F)cc2)CC1` (stereo unspecified), the MIC80 was 8 mg/L (≈ 17.5 µM).

In the case of `CN(Cc1ccc(N2CCN(Cc3ccc(C(F)(F)F)cc3Br)CC2)cc1)CC(O)(Cn1cncn1)c1ccc(F)cc1F` (stereo unspecified), the MIC80 turned out to be 0.013 mg/L (≈ 0.0191 µM).

For the next experiment, the system named is Candida albicans. The experiment is described as follows: Antifungal activity against fluconazole and iodiconazole resistant Candida albicans clinical isolate 17# assessed as inhibition of fungal growth by CLSI M27-A3 guidelines based method. Type of experiment: functional.
Conditions: not given
In the case of `CN(Cc1ccc(N2CCN(Cc3cccc(Br)c3)CC2)cc1)CC(O)(Cn1cncn1)c1ccc(F)cc1F` (stereo unspecified), the MIC80 is 0.063 mg/L (≈ 0.103 µM).

The next experiment deals with Candida tropicalis. Put plainly: Antifungal activity against Candida tropicalis GIM 2.183 assessed as inhibition of fungal growth by CLSI M27-A3 guidelines based method. Type of experiment: functional.
Conditions: not given
For the compound `CN(Cc1ccc(N2CCN(Cc3cccc(Br)c3)CC2)cc1)CC(O)(Cn1cncn1)c1ccc(F)cc1F` (stereo unspecified), the MIC80 amounted to 0.013 mg/L (≈ 0.0213 µM).

Turning to `CN(Cc1ccc(N2CCN(Cc3ccccc3F)CC2)cc1)CC(O)(Cn1cncn1)c1ccc(F)cc1F` (stereo unspecified), the MIC80 was 0.05 mg/L (≈ 0.0908 µM).

`CN1CCN(c2ccc(CN(C)CC(O)(Cn3cncn3)c3ccc(F)cc3F)cc2)CC1` (stereo unspecified): the MIC80 turned out to be 4 mg/L (≈ 8.76 µM).

Consider `CN(Cc1ccc(N2CCN(Cc3ccc(C(F)(F)F)cc3Br)CC2)cc1)CC(O)(Cn1cncn1)c1ccc(F)cc1F` (stereo unspecified), for which the MIC80 is 0.025 mg/L (≈ 0.0368 µM).

Another experiment deals with Cryptococcus neoformans. The experiment is described as follows: Antifungal activity against Cryptococcus neoformans CGMCC 2.3161 assessed as inhibition of fungal growth by CLSI M27-A3 guidelines based method. Type of experiment: functional.
Conditions: not given
Take `CN(Cc1ccc(N2CCN(Cc3cccc(Br)c3)CC2)cc1)CC(O)(Cn1cncn1)c1ccc(F)cc1F` (stereo unspecified): the MIC80 worked out at 0.1 mg/L (≈ 0.164 µM).

In the case of `CN(Cc1ccc(N2CCN(Cc3ccccc3F)CC2)cc1)CC(O)(Cn1cncn1)c1ccc(F)cc1F` (stereo unspecified), the MIC80 was determined as 0.2 mg/L (≈ 0.363 µM).

For the compound `CN1CCN(c2ccc(CN(C)CC(O)(Cn3cncn3)c3ccc(F)cc3F)cc2)CC1` (stereo unspecified), the MIC80 was above 32 mg/L.

Turning to `CN(Cc1ccc(N2CCN(Cc3ccc(C(F)(F)F)cc3Br)CC2)cc1)CC(O)(Cn1cncn1)c1ccc(F)cc1F` (stereo unspecified), the MIC80 came to 0.2 mg/L (≈ 0.294 µM).

A further experiment has as its system Candida albicans. The experiment is described as follows: Antifungal activity against Candida albicans GIM 2.194 assessed as inhibition of fungal growth by CLSI M27-A3 guidelines based method.
Conditions: not given
In kind it is functional.
On to `CN(Cc1ccc(N2CCN(Cc3cccc(Br)c3)CC2)cc1)CC(O)(Cn1cncn1)c1ccc(F)cc1F` (stereo unspecified), for which the MIC80 stood at 0.013 mg/L (≈ 0.0213 µM).

Take `CN(Cc1ccc(N2CCN(Cc3ccccc3F)CC2)cc1)CC(O)(Cn1cncn1)c1ccc(F)cc1F` (stereo unspecified): the MIC80 amounted to 0.006 mg/L (≈ 0.0109 µM).

As to `CN1CCN(c2ccc(CN(C)CC(O)(Cn3cncn3)c3ccc(F)cc3F)cc2)CC1` (stereo unspecified), the MIC80 was determined as 8 mg/L (≈ 17.5 µM).

`CN(Cc1ccc(N2CCN(Cc3ccc(C(F)(F)F)cc3Br)CC2)cc1)CC(O)(Cn1cncn1)c1ccc(F)cc1F` (stereo unspecified): the MIC80 was 0.025 mg/L (≈ 0.0368 µM).

The subject of the next experiment is Candida albicans. Put plainly: Antifungal activity against fluconazole-resistant Candida albicans clinical isolate 311 assessed as inhibition of fungal growth by CLSI M27-A3 guidelines based method. Type of experiment: functional.
Conditions: not given
As to `CN(Cc1ccc(N2CCN(Cc3cccc(Br)c3)CC2)cc1)CC(O)(Cn1cncn1)c1ccc(F)cc1F` (stereo unspecified), the MIC80 is 32 mg/L (≈ 52.3 µM).

These data come from ChEMBL document CHEMBL6092162, “Identification of novel and potent triazoles targeting CYP51 for antifungal: Design, synthesis, and biological study” (Eur J Med Chem, 2024).
